Experimental data from US20080182267A1, “METHOD FOR PREDICTING A DRUG TRANSPORT CAPABILITY BY ABCG2 POLYMORPHISMS” (BANYU PHARMACEUTICAL CO., Ltd., priority 2002, published 2008).

How the values were obtained:
[1] = system: ABCG2 (Val12Met mutant); test: Cytotoxicity by sulforhodamine B dye-staining, clone 2-51 (ABCG2 Val12Met); conditions: pig
Description: (§1) Among the polymorphic mutations identified in Example 1, two mutations—G34A and C421A—having a high possibility to affect the function of the ABCG2 polypeptide were prepared and introduced into animal cells as an endeavor to analyze their functions. Preparation of the mutated ABCG2 genes was conducted by PCR and a point mutation was introduced. […] As a control, a plasmid expressing the wild type (WT) ABCG2 and the vector plasmid pcDNA3.1(+) alone without the ABCG2 gene were used and those four kinds of expression plasmids were introduced to an animal cell (porcine kidney cell line) LLC-PK1 by lipofection method (Lipofectamine; Gibco BRL). Stable transfectants were selected with 1,500 μg/ml of Geneticin (Gibco BRL) for two weeks and cell lines were established. To determine the expressed level of ABCG2 in each cell line, total RNA was extracted from each transfectant cells and HeLa cells with Trizol (Gibco BRL). Seven microgram of the total RNA extracted from each clone of cell and full length ABCG2 cDNA (2.2 kb) probe labeled with ^32P were used for Northern hybridization. […]
(§2) All of the incubations were carried out at 37° C. under the humidified atmosphere containing 5% of carbon dioxide. The cytotoxicity of anticancer drugs was determined by sulforhodamine B dye-staining method and compared with each other. […]

[2] = system: LLC-PK1 cell line (C4) transfected with vector alone; test: Cytotoxicity by sulforhodamine B dye-staining, clone C4 (vector alone); format: cell-based, porcine; conditions: Sus scrofa, no ABCG2, 72 hours, 37° C., read-out: IC50 for cell viability
Description: as §1, §2

[3] = system: LLC-PK1 cell line (1-58) expressing the wild type ABCG2; test: Cytotoxicity by sulforhodamine B dye-staining, clone 1-58 (wild type ABCG2); conditions: among the four transfectant clones C4, 1-58, 2-51, 3-28
Description: as §1, §2

[4] = system: ABCG2 (wild type); test: as above; conditions: pig
Description: as §1, §2

[5] = system: ABCG2 (Gln141Lys mutant); test: Cytotoxicity by sulforhodamine B dye-staining, clone 3-28 (ABCG2 Gln141Lys); conditions: pig
Description: as §1, §2

`CC[C@@]1(O)C(=O)OCc2c1cc1n(c2=O)Cc2cc3ccccc3nc2-1` [Camptothecin, camptothecin] was tested, and the IC50 at 72 h [1] was 12.2 nM, the IC50 [2] was 8.7 nM and the “difference in terms of the resistance among the cells” value [3] was “no significant difference”. It also gave an IC50 at 72 h [4] of 21.3 nM and an IC50 at 72 h [5] of 26.8 nM.
